Results reported in article PMC5839718 (The Journal of General Physiology, 2018).
“And” between values parts separate entries of the source, which are not always exact repeats. Equal values may be shown once. “Also recorded” adds a separate entry of the source. Read-outs that look alike come from different tables or passages of the source.

What was measured:
Type in all cases: cell-based
[1] = target: α4β2 nAChR from β-6a-α alone (Homo sapiens, UniProt P17787+P43681); assay: two-electrode voltage-clamp, oocytes, β-6a-α alone
[2] = target: α4β2 nAChR from β-3a-α-β-α-α (Homo sapiens, UniProt P17787+P43681); assay: two-electrode voltage-clamp, oocytes, pentameric β-3a-α-β-α-α
[3] = target: α4β2 nAChR from β-21a-α^VFL-α-β-α (Homo sapiens, UniProt P17787+P43681, H142V/Q150F/T152L); assay: two-electrode voltage-clamp, oocytes, pentameric β-21a-α^VFL-α-β-α
[4] = target: α4β2 nAChR from β-6-α and α4 (1:1) (Homo sapiens, UniProt P17787+P43681); assay: two-electrode voltage-clamp, oocytes, β-6-α and α4; details: β-6-α + α4
[5] = target: α4β2 nAChR from β-3a-α-β-α-α^VFL (Homo sapiens, UniProt P17787+P43681, H142V/Q150F/T152L); assay: two-electrode voltage-clamp, oocytes, pentameric β-3a-α-β-α-α^VFL
[6] = target: α4β2 nAChR from concatenated β-6-α alone (Homo sapiens, UniProt P17787+P43681); assay: two-electrode voltage-clamp, oocytes, β-6-α alone
[7] = target: α4β2 nAChR from β-0a-α and α4^VFL (1:1) (Homo sapiens, UniProt P17787+P43681, H142V/Q150F/T152L); assay: two-electrode voltage-clamp, oocytes, β-0a-α and α4^VFL; details: β-0a-α + α4^VFL
[8] = target: α4β2 nAChR from β-9a-α and α4^VFL (1:1) (Homo sapiens, UniProt P17787+P43681, H142V/Q150F/T152L); assay: two-electrode voltage-clamp, oocytes, β-9a-α and α4^VFL
[9] = target: α4β2 nAChR from β-9a-α and α4 (1:1) (Homo sapiens, UniProt P17787+P43681); assay: two-electrode voltage-clamp, oocytes, β-9a-α and α4
[10] = target: α4β2 nAChR from β-6-α-9-β-6-α alone (Homo sapiens, UniProt P17787+P43681); assay: two-electrode voltage-clamp, oocytes, tetrameric β-6-α-9-β-6-α alone
α4β2 nAChR from β-6-α-9-β-6-α alone, sequence (P43681 27-627): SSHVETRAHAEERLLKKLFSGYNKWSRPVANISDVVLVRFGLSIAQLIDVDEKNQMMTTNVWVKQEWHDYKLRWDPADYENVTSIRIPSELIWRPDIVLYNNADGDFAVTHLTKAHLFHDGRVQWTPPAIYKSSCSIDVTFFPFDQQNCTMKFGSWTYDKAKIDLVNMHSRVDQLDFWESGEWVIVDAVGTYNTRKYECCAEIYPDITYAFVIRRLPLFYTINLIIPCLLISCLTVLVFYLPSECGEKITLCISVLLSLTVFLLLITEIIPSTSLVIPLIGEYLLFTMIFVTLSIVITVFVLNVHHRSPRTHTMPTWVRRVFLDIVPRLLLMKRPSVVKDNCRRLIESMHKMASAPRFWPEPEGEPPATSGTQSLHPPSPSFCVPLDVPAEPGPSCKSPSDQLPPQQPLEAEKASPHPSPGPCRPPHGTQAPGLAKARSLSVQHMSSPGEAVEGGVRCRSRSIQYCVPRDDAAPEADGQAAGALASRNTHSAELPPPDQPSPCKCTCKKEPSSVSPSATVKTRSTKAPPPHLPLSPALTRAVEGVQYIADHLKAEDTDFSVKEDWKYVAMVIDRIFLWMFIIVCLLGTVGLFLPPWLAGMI
α4β2 nAChR from β-6-α-9-β-6-α alone, sequence (P17787 26-502): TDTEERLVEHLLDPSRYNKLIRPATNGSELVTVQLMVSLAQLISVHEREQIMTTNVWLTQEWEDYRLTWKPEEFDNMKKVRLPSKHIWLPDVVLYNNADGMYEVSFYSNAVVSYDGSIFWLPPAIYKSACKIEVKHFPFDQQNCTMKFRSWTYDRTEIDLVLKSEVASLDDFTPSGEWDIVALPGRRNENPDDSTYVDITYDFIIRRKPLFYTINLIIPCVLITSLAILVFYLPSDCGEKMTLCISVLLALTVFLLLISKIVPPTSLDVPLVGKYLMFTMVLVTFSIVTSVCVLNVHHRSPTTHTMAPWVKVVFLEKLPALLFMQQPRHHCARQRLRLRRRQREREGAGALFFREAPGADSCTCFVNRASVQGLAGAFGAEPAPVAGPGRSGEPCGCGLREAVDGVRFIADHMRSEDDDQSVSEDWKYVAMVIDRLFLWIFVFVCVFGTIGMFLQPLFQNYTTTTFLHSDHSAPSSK

[11] = target: α4β2 nAChR from β-6-α and α4^VFL (1:1) (Homo sapiens, UniProt P17787+P43681, H142V/Q150F/T152L); assay: two-electrode voltage-clamp, oocytes, β-6-α and α4^VFL 1:1; details: β-6-α + α4^VFL 1:1
[12] = target: α4β2 nAChR from β-3a-α and α4^VFL (1:1) (Homo sapiens, UniProt P17787+P43681, H142V/Q150F/T152L); assay: two-electrode voltage-clamp, oocytes, β-3a-α and α4^VFL
[13] = target: α4β2 nAChR from β-9a-α alone (Homo sapiens, UniProt P17787+P43681); assay: two-electrode voltage-clamp, oocytes, β-9a-α alone
[14] = target: α4β2 nAChR from β-21a-α-α^VFL-β-α (Homo sapiens, UniProt P17787+P43681, H142V/Q150F/T152L); assay: two-electrode voltage-clamp, oocytes, pentameric β-21a-α-α^VFL-β-α
α4β2 nAChR from β-21a-α-α^VFL-β-α, sequence (P17787 26-502): as above
α4β2 nAChR from β-21a-α-α^VFL-β-α, sequence (P43681 27-627, stated change not applied): as the sequence (P43681 27-627) above
α4β2 nAChR from β-21a-α-α^VFL-β-α, sequence (P43681 27-627 H142V/Q150F/T152L): as the sequence (P43681 27-627) above, with H116V, Q124F, T126L counted along it
α4β2 nAChR from β-21a-α-α^VFL-β-α, sequence (P17787 26-502): as the sequence (P17787 26-502) above
α4β2 nAChR from β-21a-α-α^VFL-β-α, sequence (P43681 27-627, stated change not applied): as the sequence (P43681 27-627) above

[15] = target: α4β2 nAChR from β-21a-α-α-β-α (Homo sapiens, UniProt P17787+P43681); assay: two-electrode voltage-clamp, oocytes, pentameric β-21a-α-α-β-α
[16] = target: α4β2 nAChR from β-6-α-9-β-6-α and α4^VFL (1:5) (Homo sapiens, UniProt P17787+P43681, H142V/Q150F/T152L); assay: two-electrode voltage-clamp, oocytes, β-6-α-9-β-6-α and α4^VFL 1:5
[17] = target: α4β2 nAChR from β-3a-α^VFL-β-α-α (Homo sapiens, UniProt P17787+P43681, H142V/Q150F/T152L); assay: two-electrode voltage-clamp, oocytes, pentameric β-3a-α^VFL-β-α-α
[18] = target: α4β2 nAChR from β-3a-α^VFL-α-β-α (Homo sapiens, UniProt P17787+P43681, H142V/Q150F/T152L); assay: two-electrode voltage-clamp, oocytes, pentameric β-3a-α^VFL-α-β-α
[19] = target: α4β2 nAChR from β-21a-α-β-α-α (Homo sapiens, UniProt P17787+P43681); assay: two-electrode voltage-clamp, oocytes, pentameric β-21a-α-β-α-α
[20] = target: α4β2 nAChR from β-21a-α-β-α-α^VFL (Homo sapiens, UniProt P17787+P43681, H142V/Q150F/T152L); assay: two-electrode voltage-clamp, oocytes, pentameric β-21a-α-β-α-α^VFL
[21] = target: (α4^VFL)3(β2)2 nAChR from α4^VFL and β2 (10:1) (Homo sapiens, UniProt P17787+P43681, H142V/Q150F/T152L); assay: two-electrode voltage-clamp, X. laevis oocytes, α4^VFL and β2 cRNA 10:1
(α4^VFL)3(β2)2 nAChR from α4^VFL and β2 (10:1), sequence (P43681 27-627 H142V/Q150F/T152L): as the sequence (P43681 27-627) above, with H116V, Q124F, T126L counted along it
(α4^VFL)3(β2)2 nAChR from α4^VFL and β2 (10:1), sequence (P17787 26-502): as the sequence (P17787 26-502) above

[22] = […] NS9283 + 10 µM ACh, % change from AChcontrol current

With N#Cc1cccc(-c2nc(-c3cccnc3)no2)c1 [NS9283, 3-(3-(pyridine-3-yl)-1,2,4-oxadiazol-5-yl)benzonitrile] the EC50 [1] was 3.98 µM, the Emax ([1]; read-out: NS9283 Emax) was 51 ± 7% and the EC50 [2] was 7.94 µM. For the same compound, the Emax ([2]; read-out: NS9283 Emax) was 800 ± 90%, the “NS9283 E31.6 µM” value ([2]; β-3a-α-β-α-α, […] NS9283 + 10 µM ACh, % change from AChcontrol current) was 640 ± 90% and the EC50 [3] was 6.31 µM. For the same compound, the Emax ([3]; read-out: NS9283 Emax) was 102 ± 10%, the “NS9283 E31.6 µM” value ([3]; β-21a-α^VFL-α-β-α, […] NS9283 + 10 µM ACh, % change from AChcontrol current) was 85 ± 10% and the “NS9283 E31.6 µM” value [4, 22] was 860 ± 100%. The Emax ([5]; read-out: NS9283 Emax) was 13 ± 1%, the “NS9283 E31.6 µM” value ([5]; β-3a-α-β-α-α^VFL, […] NS9283 + 10 µM ACh, % change from AChcontrol current) was 11 ± 2% and the EC50 [6] was 12.6 µM. For the same compound, the Emax ([6]; read-out: NS9283 Emax) was 900 ± 140%, the “NS9283 E31.6 µM” value ([6]; β-6-α alone, […] NS9283 + 10 µM ACh, % change from AChcontrol current) was 640 ± 90% and the “NS9283 Emax” value ([7]; coapplied with 10 µM ACh) was “No hint of NS9283 enhancement; also recorded: No pos. pot”. For the same compound, the EC50 ([8]; NS9283 pEC50, β-9a-α + α4^VFL, coapplied with 10 µM ACh) was 10 µM, the “NS9283 E31.6 µM” value ([8]; β-9a-α + α4^VFL, […] NS9283 + 10 µM ACh, % change from AChcontrol current) was 200 ± 10% and the EC50 ([9]; NS9283 pEC50, β-9a-α + α4, coapplied with 10 µM ACh) was 12.6 µM. For the same compound, the EC50 [10] was 10 µM, the Emax ([10]; read-out: NS9283 Emax) was 220 ± 30% and the “NS9283 E31.6 µM” value ([10]; β-6-α-9-β-6-α alone, […] NS9283 + 10 µM ACh, % change from AChcontrol current) was 170 ± 20%. The “NS9283 E31.6 µM” value [11, 22] was 210 ± 20%, the EC50 ([12]; NS9283 pEC50, β-3a-α + α4^VFL, coapplied with 10 µM ACh) was 6.31 µM and the “NS9283 E31.6 µM” value ([12]; β-3a-α + α4^VFL, […] NS9283 + 10 µM ACh, % change from AChcontrol current) was 22 ± 3%. The EC50 [13] was 10 µM, the Emax ([13]; read-out: NS9283 Emax) was 130 ± 30% and the “NS9283 E31.6 µM” value ([13]; β-9a-α alone, […] NS9283 + 10 µM ACh, % change from AChcontrol current) was 100 ± 20%. For the same compound, the EC50 ([14]; NS9283 pEC50, β-21a-α-α^VFL-β-α, coapplied with 10 µM ACh) was 10 µM, the Emax ([14]; read-out: NS9283 Emax) was 75 ± 9% and the “NS9283 E31.6 µM” value ([14]; β-21a-α-α^VFL-β-α, […] NS9283 + 10 µM ACh, % change from AChcontrol current) was 55 ± 6%. For the same compound, the EC50 [15] was 5.01 µM, the Emax ([15]; read-out: NS9283 Emax) was 910 ± 70% and the “NS9283 E31.6 µM” value ([15]; β-21a-α-α-β-α, […] NS9283 + 10 µM ACh, % change from AChcontrol current) was 780 ± 90%. The EC50 ([16]; NS9283 pEC50, β-6-α-9-β-6-α + α4^VFL 1:5, coapplied with 10 µM ACh) was 7.94 µM, the EC50 ([17]; NS9283 pEC50, β-3a-α^VFL-β-α-α, coapplied with 10 µM ACh) was 6.31 µM and the Emax ([17]; read-out: NS9283 Emax) was 240 ± 20%. For the same compound, the EC50 ([18]; NS9283 pEC50, β-3a-α^VFL-α-β-α, coapplied with 10 µM ACh) was 7.94 µM, the Emax ([18]; read-out: NS9283 Emax) was 340 ± 20% and the “NS9283 E31.6 µM” value ([18]; β-3a-α^VFL-α-β-α, […] NS9283 + 10 µM ACh, % change from AChcontrol current) was 270 ± 10%. It also gave an EC50 [19] of 7.94 µM, an EC50 [20] of 5.01 µM and an Emax ([20]; read-out: NS9283 Emax) of 48 ± 5%. The “NS9283 E31.6 µM” value ([20]; β-21a-α-β-α-α^VFL, […] NS9283 + 10 µM ACh, % change from AChcontrol current) was 41 ± 4% and the “NS9283 Emax” value ([21]; α4^VFL+β2 10:1, coapplied with 10 µM ACh) was “no positive efficacy; also recorded: No pos. pot”.

With CC(=O)OCC[N+](C)(C)C [ACh, acetylcholine] the Emax ([1]; read-out: ACh Emax) was 103 ± 2%, the “ACh Frac (first component fraction)” value ([1]; β-6a-α alone, biphasic fit) was 0.70 ± 0.12 and the Emax ([2]; read-out: ACh Emax) was 102 ± 1%. The “ACh Frac (first component fraction)” value ([2]; β-3a-α-β-α-α, biphasic fit) was 0.11 ± 0.02, the Emax ([3]; read-out: ACh Emax) was 104 ± 1% and the “ACh Frac (first component fraction)” value ([3]; β-21a-α^VFL-α-β-α, biphasic fit) was 0.44 ± 0.1. For the same compound, the “ACh Frac (first component fraction)” value ([4]; biphasic fit) was 0.073 ± 0.038, the Emax ([5]; read-out: ACh Emax) was 104 ± 1% and the “ACh Frac (first component fraction)” value ([5]; β-3a-α-β-α-α^VFL, biphasic fit) was 0.53 ± 0.08. The Emax ([6]; read-out: ACh Emax) was 102 ± 2%, the “ACh Frac (first component fraction)” value ([6]; β-6-α alone, biphasic fit) was 0.11 and 0.11 ± 0.02 and the “ACh Frac (first component fraction)” value ([7]; biphasic fit) was 0.28 ± 0.34. The “ACh Frac (first component fraction)” value ([8]; β-9a-α + α4^VFL, biphasic fit) was 0.32 ± 0.09, the “ACh Frac (first component fraction)” value ([9]; β-9a-α + α4, biphasic fit) was 0.13 ± 0.05 and the Emax ([10]; read-out: ACh Emax) was 109 ± 5%. For the same compound, the “ACh Frac (first component fraction)” value ([10]; β-6-α-9-β-6-α alone, biphasic fit) was 0.45 and 0.45 ± 0.07, the “ACh Frac (first component fraction)” value ([11]; biphasic fit) was 0.40 ± 0.08 and the “ACh Frac (first component fraction)” value ([12]; β-3a-α + α4^VFL, biphasic fit) was 0.41 ± 0.06. For the same compound, the Emax ([13]; read-out: ACh Emax) was 105 ± 3%, the “ACh Frac (first component fraction)” value ([13]; β-9a-α alone, biphasic fit) was 0.28 and 0.28 ± 0.05 and the Emax ([14]; read-out: ACh Emax) was 102 ± 2%. For the same compound, the “ACh Frac (first component fraction)” value ([14]; β-21a-α-α^VFL-β-α, biphasic fit) was 0.46 ± 0.18, the Emax ([15]; read-out: ACh Emax) was 100 ± 2% and the “ACh Frac (first component fraction)” value ([15]; β-21a-α-α-β-α, biphasic fit) was 0.060 ± 0.025. The “ACh Frac (first component fraction)” value ([16]; β-6-α-9-β-6-α + α4^VFL 1:5, biphasic fit) was 0.32 ± 0.13, the Emax ([17]; read-out: ACh Emax) was 105 ± 1% and the “ACh Frac (first component fraction)” value ([17]; β-3a-α^VFL-β-α-α, biphasic fit) was 0.39 ± 0.05. For the same compound, the Emax ([18]; read-out: ACh Emax) was 105 ± 4%, the “ACh Frac (first component fraction)” value ([18]; β-3a-α^VFL-α-β-α, biphasic fit) was 0.28 ± 0.10 and the Emax ([19]; read-out: ACh Emax) was 101 ± 1%. The “mean AChmax-evoked currents” value ([19]; β-21a-α-β-α-α) was ~2 μA, the “ACh Frac (first component fraction)” value ([19]; β-21a-α-β-α-α, biphasic fit) was 0.060 ± 0.011 and the Emax ([20]; read-out: ACh Emax) was 105 ± 1%. The “ACh Frac (first component fraction)” value ([20]; β-21a-α-β-α-α^VFL, biphasic fit) was 0.59 ± 0.07, the Emax ([21]; read-out: ACh Emax) was 104 ± 2% and the “ACh Frac (first component fraction)” value ([21]; α4^VFL+β2 10:1, biphasic fit) was 0.71 ± 0.12.
